# According to patent publication US9145399B2, “Substituted bicyclic triazole derivatives as gamma secretase modulators” (Janssen Pharmaceuticals, Inc., priority 2010, dated 2015):
# Tests used:
# Aβ42 [1] = assay: Screening for γ-secretase-modulating activity in SKNBE2 cells carrying APP 695 wild type: Aβ42 in cell supernatant (Alphalisa); format: cell-based; details: overnight incubation
# In short: (§1)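 SKNBE2 cells expressing wild-type APP695 were incubated overnight at 37° C with test compound at several concentrations. Aβ42 and Aβtotal in supernatant were measured by AlphaLISA sandwich immunoassays. IC50 came from 4-parameter non-linear fits of percent of compound-free control versus log concentration.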
# Aβtotal [2] = assay: In vivo efficacy: Aβtotal in brain of non-transgenic mice after single oral dose (ELISA); parameters: species or system mouse; details: Mus musculus; dose 30 mg/kg oral dosing; soluble brain fraction, animals sacrificed after 4 h; untreated animals (Ctrl) set at 100; read-out: Aβtotal (% vs Ctrl)_Mean
# From the text: (§2) To determine whether acute administration of an Aβ42 lowering agent would reduce Aβ42 levels in vivo, non-transgenic rodents, e.g. mice or rats were used. Animals treated with the Aβ42 lowering agent were examined and compared to those untreated or treated with vehicle and brain levels of soluble Aβ42 and total Aβ were quantitated by standard techniques, for example, using ELISA. Treatment periods varied from hours (h) to days and were adjusted based on the results of the Aβ42 lowering once a time course of onset of effect could be established.
# (§3) A typical protocol for measuring Aβ42 lowering in vivo is shown but it is only one of many variations that could be used to optimize the levels of detectable Aβ. For example, Aβ42 lowering compounds were formulated in 20% of Captisol® (a sulfobutyl ether of β-cyclodextrin) in water or 20% hydroxypropyl β cyclodextrin. The Aβ42 lowering agents were administered as a single oral dose or by any acceptable route of administration to overnight fasted animals. After 4 h, the animals were sacrificed and Aβ42 levels were analysed.
# (§4) Blood was collected by decapitation and exsanguinations in EDTA-treated collection tubes. Blood was centrifuged at 1900 g for 10 minutes (min) at 4° C. and the plasma recovered and flash frozen for later analysis. The brain was removed from the cranium and hindbrain. The cerebellum was removed and the left and right hemisphere were separated. The left hemisphere was stored at −18° C. for quantitative analysis of test compound levels. The right hemisphere was rinsed with phosphate-buffered saline (PBS) buffer and immediately frozen on dry ice and stored at −80° C. until homogenization for biochemical assays.
# (§5) Mouse brains from non-transgenic animals were resuspended in 8 volumes of 0.4% DEA (diethylamine)/50 mM NaCl containing protease inhibitors (Roche-11873580001 or 04693159001) per gram of tissue, e.g. for 0.158 g brain, add 1.264 ml of 0.4% DEA. All samples were homogenized in the FastPrep-24 system (MP Biomedicals) using lysing matrix D (MPBio #6913-100) at 6 m/s for 20 seconds. Homogenates were centrifuged at 221.300×g for 50 min. The resulting high speed supernatants were then transferred to fresh eppendorf tubes. Nine parts of supernatant were neutralized with 1 part 0.5 M Tris-HCl pH 6.8 and used to quantify Aβtotal and Aβ42.
# (§6) To quantify the amount of Aβtotal and Aβ42 in the soluble fraction of the brain homogenates, Enzyme-Linked-Immunosorbent-Assays were used. Briefly, the standards (a dilution of synthetic Aβ1-40 and Aβ1-42, Bachem) were prepared in 1.5 ml Eppendorf tube in Ultraculture, with final concentrations ranging from 10000 to 0.3 pg/ml. The samples and standards were co-incubated with HRPO-labelled N-terminal antibody for Aβ42 detection and with the biotinylated mid-domain antibody 4G8 for Aβtotal detection. 50 μl of conjugate/sample or conjugate/standards mixtures were then added to the antibody-coated plate (the capture antibodies selectively recognize the C-terminal end of Aβ42, antibody JRF/cAβ42/26, for Aβ42 detection and the N-terminus of Aβ, antibody JRF/rAβ/2, for Aβtotal detection). The plate was allowed to incubate overnight at 4° C. in order to allow formation of the antibody-amyloid complex. Following this incubation and subsequent wash steps the ELISA for Aβ42 quantification was finished by addition of Quanta Blu fluorogenic peroxidase substrate according to the manufacturer's instructions (Pierce Corp., Rockford, Il). A reading was performed after 10 to 15 min (excitation 320 nm/emission 420 nm).
# For Aβtotal detection, a Streptavidine-Peroxidase-Conjugate was added, followed 60 min later by an additional wash step and addition of Quanta Blu fluorogenic peroxidase substrate according to the manufacturer's instructions (Pierce Corp., Rockford, Ill). A reading was performed after 10 to 15 min (excitation 320 nm/emission 420 nm). […]
# Aβtotal [3] = assay: Screening for γ-secretase-modulating activity in SKNBE2 cells carrying APP 695 wild type: Aβtotal in cell supernatant (Alphalisa); format: cell-based; details: overnight incubation
# In short: as §1
# Aβ42 [4] = assay: In vivo efficacy: Aβ42 lowering in brain of non-transgenic mice after single oral dose (ELISA); parameters: species or system mouse; details: Mus musculus; dose 30 mg/kg oral dosing; soluble brain fraction, animals sacrificed after 4 h; untreated animals (Ctrl) set at 100; read-out: Aβ42 (% vs Ctrl) _Mean
# From the text: as §2, §3, §4, §5, §6
# In this model at least 20% Aβ42 lowering compared to untreated animals would be advantageous.
# The results are shown in Table 4 (dose 30 mg/kg oral dosing) (value for untreated animals as control (Ctrl) was set at 100): […]
# [5] = Homo sapiens, SKNBE2, SKNBE2 cells carrying APP 695 wild type
SMILES,melting point [°C],IC50 (Aβ42 [1]; [5]) [nM],IC50 (Aβtotal [3]; Homo sapiens) [nM],IC50 (Aβ42 [1]; SKNBE2 cells carrying APP 695 wild type) [nM],IC50 (Aβtotal [3]) [nM],response vs control in vivo at 30 mg/kg (Aβtotal [2]) [%],response vs control in vivo at 30 mg/kg (Aβ42 [4]) [%]
"COc1cc(Nc2nc3n(n2)CCC[C@H]3c2ccccc2Cl)ccc1-n1cnc(C)c1 [Compound 29, (8S)-8-(2-chlorophenyl)-5,6,7,8-tetrahydro-N-[3-methoxy-4-(4-methyl-1H-imidazol-1-yl)phenyl]-[1,2,4]triazolo[1,5-a]pyridin-2-amine]",193.2,25,> 10000,,,98,99
"COc1cc(F)cc(C2CCCn3nc(Nc4ccc(-c5ccnc(C)c5)cc4)nc32)c1 (centres unmarked) [Compound 185, 8-(3-fluoro-5-methoxyphenyl)-5,6,7,8-tetrahydro-N-[4-(2-methyl-4-pyridinyl)phenyl]-[1,2,4]triazolo[1,5-a]pyridin-2-amine]",175.1,28,> 10000,,,96,52
"Cc1cc(-c2ccc(Nc3nc4n(n3)CCCC4c3ccccc3Cl)cc2)ccn1 (centres unmarked) [Compound 41, 8-(2-chlorophenyl)-5,6,7,8-tetrahydro-N-[4-(2-methyl-4-pyridinyl)phenyl]-[1,2,4]triazolo[1,5-a]pyridin-2-amine]",227.2,28,> 10000,,,102,54
"COc1cc(Nc2nc3n(n2)CCC[C@@H]3c2ccccc2Cl)ccc1-n1cnc(C)c1 [Compound 28, (8R)-8-(2-chlorophenyl)-5,6,7,8-tetrahydro-N-[3-methoxy-4-(4-methyl-1H-imidazol-1-yl)phenyl]-[1,2,4]triazolo[1,5-a]pyridin-2-amine]",195,16,5130,,,93,81
"COc1cc(Nc2nc3n(n2)CCOC3c2ccccc2Cl)ccc1-c1ccnc(C)c1 (centres unmarked) [Compound 87, 8-(2-chlorophenyl)-5,6-dihydro-N-[3-methoxy-4-(2-methyl-4-pyridinyl)phenyl]-8H-[1,2,4]triazolo[5,1-c][1,4]oxazin-2-amine]",181.3,35,> 10000,,,89,48
"COc1cc(Nc2nc3c(-c4ccccc4C(F)(F)F)cccn3n2)ccc1-n1cnc(C)n1 [Compound 3, N-[3-methoxy-4-(3-methyl-1H-1,2,4-triazol-1-yl)phenyl]-8-[2-(trifluoromethyl)phenyl]-[1,2,4]triazolo[1,5-a]pyridin-2-amine]",195.5,19,> 10000,,,95,75
"Cc1cc(-c2ccc(Nc3nc4n(n3)CCCC4c3ccc(F)cc3F)cc2)ccn1 (centres unmarked) [Compound 81, 8-(2,4-difluorophenyl)-5,6,7,8-tetrahydro-N-[4-(2-methyl-4-pyridinyl)phenyl]-[1,2,4]triazolo[1,5-a]pyridin-2-amine]",193.7,69,> 10000,,,84,41

# Further lines, with some results ahead:
melting point [°C],IC50 (Aβ42 [1]; [5]) [nM],IC50 (Aβtotal [3]; Homo sapiens) [nM],IC50 (Aβ42 [1]; SKNBE2 cells carrying APP 695 wild type) [nM],IC50 (Aβtotal [3]) [nM],SMILES,response vs control in vivo at 30 mg/kg (Aβtotal [2]) [%],response vs control in vivo at 30 mg/kg (Aβ42 [4]) [%]
192.7,39,> 10000,,,"COc1cc(Nc2nc3n(n2)CCCC3c2ccc(F)cc2F)ccc1-c1ccnc(C)c1 (centres unmarked) [Compound 82, 8-(2,4-difluorophenyl)-5,6,7,8-tetrahydro-N-[3-methoxy-4-(2-methyl-4-pyridinyl)phenyl]-[1,2,4]triazolo[1,5-a]pyridin-2-amine]",89,47
169,,,32,> 10000,COc1cc(Nc2nc3n(n2)CCCC3c2ccccc2Cl)ccc1-c1ccnc(C)c1 (centres unmarked) [Compound 78],103,46
161.4,25,8510,,,"COc1cc(Nc2nc3n(n2)CCCC3c2ccc(F)cc2C)ccc1-c1ccnc(C)c1 (centres unmarked) [Compound 91, 8-(4-fluoro-2-methylphenyl)-5,6,7,8-tetrahydro-N-[3-methoxy-4-(2-methyl-4-pyridinyl)phenyl]-[1,2,4]triazolo[1,5-a]pyridin-2-amine]",92,51
